According to US12655116B2, “Substituted isophthalic acid diamides” (Bayer Aktiengesellschaft, priority 2020, dated 2026):

Tests used:
[1] = system: DIGSA; assay: Pre-emergence herbicidal action against DIGSA; assay type: in vivo, Digitaria sanguinalis
Procedure, shortened: (§1)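 Herbicidal effect was assessed 3 weeks after treatment by visual comparison with untreated controls, 100% denoting dead plants. Aqueous WP or EC preparations had been applied at 600 to 800 l/ha with 0.2% wetting agent to the soil covering freshly sown seeds.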

[2] = system: MATIN; assay: Pre-emergence herbicidal action against MATIN; assay type: in vivo, Matricaria inodora
Procedure, shortened: as §1

[3] = system: VIOTR; assay: Pre-emergence herbicidal action against VIOTR; assay type: in vivo, Viola tricolor
Procedure, shortened: as §1

[4] = system: POLCO; assay: Pre-emergence herbicidal action against POLCO; assay type: in vivo, Polygonum convolvulus; settings: dosage 80 g/ha
Procedure, shortened: as §1

[5] = system: AMARE; assay: Post-emergence herbicidal action against AMARE; assay type: in vivo, Amaranthus retroflexus; settings: 20 g/ha, visual assessment about 3 weeks after treatment, 100% = plants have died, 0% = like control plants
Procedure, shortened: (§2)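 Herbicidal effect was scored visually in percent after about 3 weeks in the greenhouse. Plants had been raised in sandy loam and treated post-emergence at the one-leaf stage with formulated compound at 600 to 800 l/ha water plus 0.2% wetting agent.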

[6] = system: AMARE; assay: Pre-emergence herbicidal action against AMARE; assay type: in vivo, Amaranthus retroflexus
Procedure, shortened: as §1

[7] = system: STEME; assay: Pre-emergence herbicidal action against STEME; assay type: in vivo, Stellaria media; settings: dosage 80 g/ha
Text: Seeds of monocotyledonous and dicotyledonous weed plants and crop plants are laid out in sandy loam soil in wood-fiber pots and covered with soil. The compounds of the invention, formulated in the form of wettable powders (WP) or as emulsion concentrates (EC), are then applied to the surface of the covering soil in the form of an aqueous suspension or emulsion at a water application rate equivalent to 600 to 800 l/ha, with addition of 0.2% wetting agent. After the treatment, the pots are placed in a greenhouse and kept under good growth conditions for the trial plants. The damage to the test plants is scored visually after a test period of 3 weeks by comparison with untreated controls (herbicidal activity in percent (%): 100% activity=the plants have died, 0% activity=like control plants). […] The tables below illustrate, in an illustrative manner, the post-emergence herbicidal action of the compounds of the invention, the herbicidal activity being stated in percent.

[8] = system: ABUTH; assay: Pre-emergence herbicidal action against ABUTH; assay type: in vivo, Abutilon theophrasti
Procedure, shortened: as §1

[9] = system: VERPE; assay: Post-emergence herbicidal action against VERPE; assay type: in vivo, Veronica persica; settings: 20 g/ha
Procedure, shortened: as §2

[10] = system: VIOTR; assay: Post-emergence herbicidal action against VIOTR; assay type: in vivo, Viola tricolor
Procedure, shortened: as §2

[11] = system: VERPE; assay: Pre-emergence herbicidal action against VERPE; assay type: in vivo, Veronica persica; settings: dosage 80 g/ha
Procedure, shortened: as §1

[12] = system: ABUTH; assay: Post-emergence herbicidal action against ABUTH; assay type: in vivo, Abutilon theophrasti; settings: dosage 20 g/ha, visual assessment about 3 weeks after treatment vs untreated controls
Procedure, shortened: as §2

[13] = system: ECHCG; assay: Pre-emergence herbicidal action against ECHCG; assay type: in vivo, Echinochloa crus-galli
Procedure, shortened: as §1

[14] = system: MATIN; assay: Post-emergence herbicidal action against MATIN; assay type: in vivo, Matricaria inodora; settings: dosage 20 g/ha
Procedure, shortened: as §2

[15] = system: AVEFA; assay: Pre-emergence herbicidal action against AVEFA; assay type: in vivo, Avena fatua
Procedure, shortened: as §1

[16] = system: SETVI; assay: Pre-emergence herbicidal action against SETVI; assay type: in vivo, Setaria viridis; settings: dosage 80 g/ha
Procedure, shortened: as §1

[17] = system: ECHCG; assay: Post-emergence herbicidal action against ECHCG; assay type: in vivo, Echinochloa crus-galli; settings: dosage 20 g/ha
Procedure, shortened: as §2

[18] = system: AVEFA; assay: Post-emergence herbicidal action against AVEFA; assay type: in vivo, Avena fatua; settings: visual assessment about 3 weeks after treatment, 100% = plants have died, 0% = like control plants
Method: Seeds of monocotyledonous and dicotyledonous weed and crop plants are laid out in sandy loam soil in wood-fiber pots, covered with soil and cultivated in a greenhouse under good growth conditions. 2 to 3 weeks after sowing, the test plants are treated at the one-leaf stage. The compounds of the invention, formulated in the form of wettable powders (WP) or as emulsion concentrates (EC), are then sprayed onto the green parts of the plants in the form of an aqueous suspension or emulsion at a water application rate equivalent to 600 to 800 l/ha, with addition of 0.2% wetting agent. After the test plants have been left to stand in the greenhouse under optimal growth conditions for about 3 weeks, the action of the preparations is assessed visually in comparison to untreated controls (herbicidal action in percent (%): 100% activity=the plants have died, 0% activity=like control plants). […] The tables below illustrate, in an illustrative manner, the post-emergence herbicidal action of the compounds of the invention, the herbicidal activity being stated in percent.

[19] = system: SETVI; assay: Post-emergence herbicidal action against SETVI; assay type: in vivo, Setaria viridis; settings: Setaria viridis, 504 h, dosage 20 g/ha
Procedure, shortened: as §2

[20] = system: ALOMY; assay: Pre-emergence herbicidal action against ALOMY; assay type: in vivo, Alopecurus myosuroides; settings: Alopecurus myosuroides, 504 h; 80 g/ha, pre-emergence, scored visually after 3 weeks vs untreated controls (100% = plants have died, 0% = like control plants)
Procedure, shortened: as §1

[21] = 20 g/ha, scored visually after 3 weeks vs untreated controls, 100% = plants have died, 0% = like control plants
[22] = 80 g/ha, scored visually after 3 weeks vs untreated controls (100% = plants have died, 0% = like control plants)

CCn1nnnc1NC(=O)c1ccc(S(C)(=O)=O)c(C(=O)NC)c1Cl [Example 2-123]
Pre-emergence action against DIGSA in % ([1]; dosage 20 g/ha): 80% | Pre-emergence action against DIGSA in % ([1]; dosage 80 g/ha): 90% | Pre-emergence action against MATIN in % ([2]; dosage 20 g/ha): 80% | Pre-emergence action against MATIN in % ([2]; dosage 80 g/ha): 100% | Pre-emergence action against VIOTR in % ([3]; dosage 80 g/ha): 80% | Pre-emergence action against POLCO in % [4]: 80% | Post-emergence action at 20 g/ha against AMARE in % [5]: 80% | Pre-emergence action against AMARE in % [6, 21]: 80% | Pre-emergence action against AMARE in % [6, 22]: 100% | Pre-emergence action against STEME in % [7]: 80% | Pre-emergence action against ABUTH (herbicidal activity) [8, 22]: 100% | Post-emergence action against VERPE in % [9]: 80%

CCn1nnnc1NC(=O)c1ccc(C(F)F)c(C(=O)NCC2CC2)c1SC [Example 2-90]
Post-emergence action against VIOTR in % ([10]; 5 g/ha): 100% | Post-emergence action against VIOTR in % ([10]; 20 g/ha): 100% | Pre-emergence action against VERPE in % [11]: 90% | Post-emergence action against ABUTH in % [12]: 90% | Pre-emergence action against ECHCG in % ([13]; 20 g/ha): 90% | Pre-emergence action against ECHCG in % ([13]; 80 g/ha): 100% | Pre-emergence action against MATIN in % ([2]; dosage 20 g/ha): 100% | Pre-emergence action against MATIN in % ([2]; dosage 80 g/ha): 100% | Pre-emergence action against VIOTR in % ([3]; dosage 20 g/ha): 80% | Pre-emergence action against VIOTR in % ([3]; dosage 80 g/ha): 100% | Post-emergence action at 20 g/ha against AMARE in % [5]: 100% | Post-emergence action against MATIN in % [14]: 90% | Pre-emergence action against AMARE in % [6, 21]: 100% | Pre-emergence action against AMARE in % [6, 22]: 100% | Pre-emergence action against ABUTH (herbicidal activity) [8, 22]: 100% | Pre-emergence action against ABUTH (herbicidal activity in percent) ([8]; dosage 20 g/ha, scored visually after 3 weeks vs untreated controls, 100% = plants have died, 0% = like control plants): 100% | Pre-emergence action against AVEFA ([15]; 20 g/ha, scored visually after 3 weeks, 100% = plants have died, 0% = like control plants): 80% | Pre-emergence action against AVEFA in % ([15]; 80 g/ha, pre-emergence): 90% | Pre-emergence action against SETVI in % [16]: 100% | Post-emergence action against ECHCG in % [17]: 100% | Post-emergence action at 20 g/ha against AVEFA in % ([18]; 20 g/ha): 80%

Cc1c(C(=O)Nc2nnnn2C)ccc(C(F)(F)F)c1C(=O)NCC(F)(F)F [Example 1-29]
pest or weed control at 20 g/ha ([1]; Digitaria sanguinalis, 504 h, dosage 20 g/ha): 100% | pest or weed control at 80 g/ha ([1]; Digitaria sanguinalis, 504 h, dosage 80 g/ha): 100% | pest or weed control at 20 g/ha ([12]; Abutilon theophrasti, 504 h): 80% | pest or weed control at 80 g/ha ([13]; Echinochloa crus-galli, 504 h, 80 g/ha): 90% | pest or weed control at 20 g/ha ([2]; Tripleurospermum inodorum, 504 h, dosage 20 g/ha): 100% | pest or weed control at 80 g/ha ([2]; Tripleurospermum inodorum, 504 h, dosage 80 g/ha): 100% | pest or weed control at 20 g/ha ([3]; Viola tricolor, 504 h, dosage 20 g/ha): 100% | pest or weed control at 80 g/ha ([3]; Viola tricolor, 504 h, dosage 80 g/ha): 100% | pest or weed control at 20 g/ha ([6]; Amaranthus retroflexus, 504 h, 20 g/ha, scored visually after 3 weeks vs untreated controls, 100% = plants have died, 0% = like control plants): 100% | pest or weed control at 80 g/ha ([6]; Amaranthus retroflexus, 504 h, 80 g/ha, scored visually after 3 weeks vs untreated controls, 100% = plants have died, 0% = like control plants): 100% | pest or weed control at 20 g/ha [19]: 80% | pest or weed control at 80 g/ha ([8]; Abutilon theophrasti, 504 h, 80 g/ha, scored visually after 3 weeks vs untreated controls (100% = plants have died, 0% = like control plants)): 100% | pest or weed control at 80 g/ha [20]: 100% | pest or weed control at 80 g/ha ([15]; Avena fatua, 504 h, 80 g/ha, pre-emergence): 90% | pest or weed control at 20 g/ha ([15]; Avena fatua, pre-emergence, 504 h, 20 g/ha, scored visually after 3 weeks, 100% = plants have died, 0% = like control plants): 80% | pest or weed control at 80 g/ha ([16]; Setaria viridis, 504 h): 100% | pest or weed control at 20 g/ha ([17]; Echinochloa crus-galli, 504 h): 80% | pest or weed control at 5 g/ha ([18]; Avena fatua, 504 h, 5 g/ha): 80% | pest or weed control at 20 g/ha ([18]; Avena fatua, 504 h, 20 g/ha): 90%
